Test results reported in patent publication US8748608B2, “4-phenylpiperazine derivatives with functionalized linkers as dopamine D3 receptor selective ligands and methods of use” (The United States of America as Represented by the …, priority 2007, dated 2014).
Read-outs that look alike come from different tables or passages of the source.

Tests used:
serotonin 5HT1A receptor = serotonin 5HT1A receptor (Homo sapiens (Human), UniProt P08908); assay: Serotonin receptor binding, 5HT1A; conditions: ratio of affinities
Sequence of serotonin 5HT1A receptor (P08908 whole entry): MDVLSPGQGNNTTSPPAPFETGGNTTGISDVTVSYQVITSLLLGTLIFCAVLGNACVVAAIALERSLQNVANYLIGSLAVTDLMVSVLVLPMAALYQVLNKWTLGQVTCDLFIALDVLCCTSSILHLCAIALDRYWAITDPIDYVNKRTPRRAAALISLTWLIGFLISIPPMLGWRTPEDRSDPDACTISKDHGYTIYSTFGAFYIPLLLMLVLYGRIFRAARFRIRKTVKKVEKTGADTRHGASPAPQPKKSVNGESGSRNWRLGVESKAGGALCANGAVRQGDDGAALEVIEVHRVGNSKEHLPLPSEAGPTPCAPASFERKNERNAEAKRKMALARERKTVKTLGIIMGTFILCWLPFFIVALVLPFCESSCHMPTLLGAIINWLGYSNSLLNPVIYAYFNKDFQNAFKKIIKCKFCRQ
Excerpt: (§1) The procedures to determine the binding affinities at the human dopamine D2-like receptors, the binding affinities at the serotonin 5HT1A, 5HT2A and 5HT2c receptors and functional mitogenesis assay are known in the art. See J. Med. Chem. 2005, 48, 839-848. See also, NIDA Research Monograph #178, Proceedings of the College of Drug Dependence, p. 440-466, 1998. Both of these references are incorporated by reference.

[1] = biological target: T1, human D4.4 dopamine receptor (Homo sapiens (Human), UniProt P21917); assay: Human D2-like receptor competition binding in HEK cells, D4; conditions: for Ki: HEK 293 cells, hD4.4; for D4/D3 Ki ratio: head printed D4/D2, values correspond to D4 Ki over D3 Ki
T1 sequence (P21917 whole entry): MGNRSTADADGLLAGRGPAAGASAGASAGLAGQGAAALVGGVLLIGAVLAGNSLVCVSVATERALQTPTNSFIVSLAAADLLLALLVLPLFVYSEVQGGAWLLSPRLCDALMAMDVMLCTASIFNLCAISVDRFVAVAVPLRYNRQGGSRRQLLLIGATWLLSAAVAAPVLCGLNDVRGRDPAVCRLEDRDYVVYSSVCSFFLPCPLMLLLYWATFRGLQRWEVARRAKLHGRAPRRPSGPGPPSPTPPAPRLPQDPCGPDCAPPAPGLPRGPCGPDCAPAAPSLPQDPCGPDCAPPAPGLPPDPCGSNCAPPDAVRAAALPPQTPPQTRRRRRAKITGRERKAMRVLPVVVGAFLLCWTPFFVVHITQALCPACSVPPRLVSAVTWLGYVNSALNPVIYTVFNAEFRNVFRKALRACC
Excerpt: (§2) Human dopamine D2-long (D2) and D3 (D3) receptors were expressed in HEK cells. In brief, stably transfected HEK cells expressing the human D2-long and the D3 dopamine receptor were developed using the pIRES bicistronic expression vector (CLONTECH; Palo Alto, Calif.). […] For comparison, human dopamine D4 (D4) receptors were obtained from HEK 293 cells stably transfected with a PCR product of a human cDNA coding for the D4.4 form of the human D4 dopamine receptor.
(§3) The procedures to determine the binding affinities at the human dopamine D2-like receptors, the binding affinities at the serotonin 5HT1A, 5HT2A and 5HT2c receptors and functional mitogenesis assay are known in the art. […] Both of these references are incorporated by reference.

[2] = biological target: human dopamine D3 receptor (Homo sapiens (Human), UniProt P35462); assay: Human D2-like receptor competition binding in HEK cells, D3; conditions: for D2/D3: ratio of Ki at D2 over Ki at D3
Sequence of human dopamine D3 receptor (P35462 whole entry): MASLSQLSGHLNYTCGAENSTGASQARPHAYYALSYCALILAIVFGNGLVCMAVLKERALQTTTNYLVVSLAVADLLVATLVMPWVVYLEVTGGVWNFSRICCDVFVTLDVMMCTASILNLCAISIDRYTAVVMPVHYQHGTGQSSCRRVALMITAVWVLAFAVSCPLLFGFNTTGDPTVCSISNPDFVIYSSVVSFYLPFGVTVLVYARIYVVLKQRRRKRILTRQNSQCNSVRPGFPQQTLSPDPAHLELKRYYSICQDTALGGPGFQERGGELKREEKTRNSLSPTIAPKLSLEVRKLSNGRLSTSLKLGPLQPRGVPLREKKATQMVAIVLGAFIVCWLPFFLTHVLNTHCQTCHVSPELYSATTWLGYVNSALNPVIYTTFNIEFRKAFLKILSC
Excerpt: as §2, §3

serotonin 5HT2c receptor = serotonin 5HT2c receptor (Homo sapiens (Human), UniProt P28335); assay: Serotonin receptor binding, 5HT2c; conditions: ratio of affinities, 5HT2c over D3
Sequence of serotonin 5HT2c receptor (P28335 33-458): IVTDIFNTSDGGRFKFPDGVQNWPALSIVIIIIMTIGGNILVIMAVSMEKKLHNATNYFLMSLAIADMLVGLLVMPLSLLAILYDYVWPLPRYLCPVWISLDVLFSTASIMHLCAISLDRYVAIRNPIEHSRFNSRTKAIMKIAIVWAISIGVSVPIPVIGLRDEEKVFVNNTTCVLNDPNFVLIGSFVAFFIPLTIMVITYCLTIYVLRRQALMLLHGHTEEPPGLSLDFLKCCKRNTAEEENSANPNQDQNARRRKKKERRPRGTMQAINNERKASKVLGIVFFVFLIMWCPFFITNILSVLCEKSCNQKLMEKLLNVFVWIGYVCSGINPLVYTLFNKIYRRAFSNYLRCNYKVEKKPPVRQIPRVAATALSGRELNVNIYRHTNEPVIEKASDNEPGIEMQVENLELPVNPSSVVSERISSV
Excerpt: as §3

[3] = biological target: human dopamine D2-long (D2) receptor (Homo sapiens (Human), UniProt P14416); assay: Human D2-like receptor competition binding in HEK cells, D2; conditions: hD2L
Sequence of human dopamine D2-long (D2) receptor (P14416 whole entry): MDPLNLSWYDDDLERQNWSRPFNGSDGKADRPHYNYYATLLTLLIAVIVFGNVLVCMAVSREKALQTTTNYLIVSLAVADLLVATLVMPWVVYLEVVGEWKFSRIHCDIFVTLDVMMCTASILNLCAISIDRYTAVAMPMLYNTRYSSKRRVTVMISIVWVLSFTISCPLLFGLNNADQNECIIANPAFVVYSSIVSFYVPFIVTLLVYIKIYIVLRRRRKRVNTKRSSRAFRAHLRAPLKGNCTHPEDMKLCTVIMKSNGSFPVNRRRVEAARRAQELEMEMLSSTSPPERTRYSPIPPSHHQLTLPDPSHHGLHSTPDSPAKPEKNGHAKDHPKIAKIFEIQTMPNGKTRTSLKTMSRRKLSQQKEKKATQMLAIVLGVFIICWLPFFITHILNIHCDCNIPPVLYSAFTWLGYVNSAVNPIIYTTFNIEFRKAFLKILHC
Excerpt: as §2, §3

[4] = biological target: T2, human dopamine D3 receptors in CHO cells (Homo sapiens (Human), UniProt P35462); assay: D3 inhibition of quinpirole stimulation of mitogenesis (antagonist assay); format: cell-based; conditions: inhibition of 30 nM quinpirole stimulated mitogenesis, CHOp cells; read-out: IC50 ± S.E.M., D3
T2 sequence (P35462 whole entry): as the sequence (P35462 whole entry) above
Method: (§4) The cells were incubated at 37° C. in α-MEM with 10% FBS, 0.05% penicillin-streptomycin, and 200 μg/mL of G418. After 48 hours, the cells were rinsed twice with serum-free α-MEM and incubated for 24 hours at 37° C. In the functional assay for agonism, the medium was removed and replaced with 90 μl of serum-free α-MEM and 10 μl of test compound in sterile water; in the antagonist assay, the test compound was diluted in sterile water plus 30 nM quinpirole. After another 24-hour incubation at 37° C., 0.25 μCi of [^3H]thymidine was added to each well and the plates were further incubated for 2 hours at 37° C. The cells were then trypsinized, and the plates were filtered and counted as usual in the art. Quinpirole was run on every plate as an internal standard.
as §3

serotonin 5HT2A receptor = serotonin 5HT2A receptor (Homo sapiens (Human), UniProt P28223); assay: Serotonin receptor binding, 5HT2A; conditions: ratio of affinities
Sequence of serotonin 5HT2A receptor (P28223 whole entry): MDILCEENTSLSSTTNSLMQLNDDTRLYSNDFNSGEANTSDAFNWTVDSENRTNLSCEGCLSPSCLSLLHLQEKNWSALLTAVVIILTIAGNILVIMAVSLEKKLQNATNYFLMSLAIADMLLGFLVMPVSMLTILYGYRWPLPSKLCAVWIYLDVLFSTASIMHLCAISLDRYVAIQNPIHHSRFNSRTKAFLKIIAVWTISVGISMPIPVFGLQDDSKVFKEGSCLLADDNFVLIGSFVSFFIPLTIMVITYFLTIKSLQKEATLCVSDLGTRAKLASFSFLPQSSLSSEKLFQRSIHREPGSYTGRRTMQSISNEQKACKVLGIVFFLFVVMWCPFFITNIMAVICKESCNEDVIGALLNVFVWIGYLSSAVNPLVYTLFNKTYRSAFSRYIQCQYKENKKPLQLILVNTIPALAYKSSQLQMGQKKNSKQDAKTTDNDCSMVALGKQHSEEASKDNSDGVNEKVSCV
Excerpt: as §3

[5] = biological target: T3, D2 receptor (human) in CHOp-cells (Homo sapiens (Human), UniProt P14416); assay: D2 inhibition of quinpirole stimulation of mitogenesis (antagonist assay); format: cell-based; conditions: inhibition of 30 nM quinpirole stimulated mitogenesis, read-out: IC50 ± S.E.M., D2
T3 sequence (P14416 whole entry): as the sequence (P14416 whole entry) above
Method: as §4, §3

σ2 binding sites = conditions: cited from earlier work
D1a dopamine receptors = D1a dopamine receptors (Homo sapiens (Human), UniProt P21728); conditions: cited from earlier work
Sequence of D1a dopamine receptors (P21728 whole entry): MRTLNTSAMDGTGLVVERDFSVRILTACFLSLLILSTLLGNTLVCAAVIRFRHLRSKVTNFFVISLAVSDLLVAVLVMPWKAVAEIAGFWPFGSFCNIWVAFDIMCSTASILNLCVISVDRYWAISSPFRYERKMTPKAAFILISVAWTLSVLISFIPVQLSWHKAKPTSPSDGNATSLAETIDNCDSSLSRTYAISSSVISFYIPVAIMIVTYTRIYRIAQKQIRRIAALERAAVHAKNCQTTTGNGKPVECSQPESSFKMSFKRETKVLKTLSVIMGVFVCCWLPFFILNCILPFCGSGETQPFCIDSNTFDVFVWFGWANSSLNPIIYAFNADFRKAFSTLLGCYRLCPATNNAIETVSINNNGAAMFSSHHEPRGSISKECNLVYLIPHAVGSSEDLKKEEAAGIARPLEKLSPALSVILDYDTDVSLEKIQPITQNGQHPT

σ1 binding sites = conditions: cited from earlier work
[6] = biological target: T1, human D4.4 dopamine receptor; conditions: HEK 293 cells; relative to D2 and D3; cited from earlier work
[7] = biological target: T3, D2 receptor (human) in CHOp-cells; assay: D2 stimulation of mitogenesis (agonist assay); format: cell-based; conditions: for EC50: read-out: partial agonist activity: EC50, D2
Method: as §4, §1

[8] = biological target: T2, human dopamine D3 receptors in CHO cells; assay: D3 stimulation of mitogenesis (agonist assay); format: cell-based; conditions: CHOp cells; for EC50: read-out: partial agonist activity: EC50, D3 (converted)
Method: as §4, §1

[9] = HEK cells, hD3, read-out: D3 Ki
[10] = Table 3, unit inferred, with spread, read-out: D3 binding affinity

| Structure (SMILES) | 5HT1A/D3 (serotonin 5HT1A receptor) | Ki [1] [nM] | D4/D3 Ki ratio [1] | Ki [2, 9] [nM] | Ki [2, 10] [nM] | D2/D3 [2] | 5HT2c/D (serotonin 5HT2c receptor) | Ki [3] [nM] | IC50 [4] [nM] | 5HT2A/D3 (serotonin 5HT2A receptor) | IC50 [5] [nM] | affinity to σ2 binding sites (σ2 binding sites) | affinity to D1a dopamine receptors (D1a dopamine receptors) | affinity to σ1 binding sites (σ1 binding sites) | fold lower affinity to human D4.4 dopamine receptors [6] | partial agonist activity: % stimulation, D2 [7] [%] | EC50 [7] [nM] | partial agonist activity: % stimulation, D3 [8] [%] | EC50 [8] [nM] |
| --- | --- | --- | --- | --- | --- | --- | --- | --- | --- | --- | --- | --- | --- | --- | --- | --- | --- | --- | --- |
| COc1ccccc1N1CCN(CC(O)CCNC(=O)c2ccc(-c3ccccn3)cc2)CC1 (centres unmarked) [Compound 18, N-(3-Hydroxy-4-(4-(2-methoxy-phenyl)-piperazin-1-yl)-butyl)-4-pyridin-2-yl-benzamide] | 13 | 1490 | 532 | 2.8 | 2.8 ± 0.8 | 101 | 1407 | 284 | 12.8 ± 1.3 | 248 |  |  |  |  |  |  |  |  |  |
| Cc1cccc(-c2ccc(C(=O)NC/C=C/CN3CCN(c4cccc(Cl)c4Cl)CC3)cc2)n1 [Compound 10, N-(4-(4-(2,3-Dichloro-phenyl)-piperazin-1-yl)-trans-but-2-enyl)-4-(6-methyl-pyridin-2-yl)-benzamide] | 221 |  |  | 1.4 | 1.4 ± 0.3 | 75 | 69 | 105 | 6.7 ± 2.6 | 66 | 1300 ± 320 |  |  |  |  |  |  |  |  |
| COc1cc([125I])cc(C(=O)NC2CC3CCCC(C2)N3Cc2ccccc2)c1OC (centres unmarked) [^125I-IABN] |  |  |  |  |  |  |  |  |  |  |  | low affinity | low affinity | low affinity | 7- to 10 fold |  |  |  |  |
| O=C(NC/C=C/CN1CCN(c2cccc(Cl)c2Cl)CC1)c1ccc(-c2cccc[n+]2[O-])cc1 [Compound 12, N-(4-(4-(2,3-Dichloro-phenyl)-piperazin-1-yl)-trans-but-2-enyl)-4-(pyridin-N-oxide-2-yl)-benzamide] |  |  |  | 1.1 | 1.1 ± 0.3 |  |  | 25.8 |  |  | 22.9 ± 2 |  |  |  |  | 31 | 231 |  |  |
| O=C(NCC(O)CCN1CCN(c2cccc(Cl)c2Cl)CC1)c1ccc(-c2ccccn2)cc1 (centres unmarked) [Compound 21, N-(4-(4-(2,3-Dichlorophenyl)piperazin-1-yl)-2-hydroxybutyl)-4-(pyridin-2-yl)-benzamide] | 30 |  |  | 0.5 | 0.5 ± 0.1 | 57 | 50 | 28.4 | 5.4 ± 1.8 | 31 | 88.3 ± 15.7 |  |  |  |  |  |  | 20 | 3.4 |
| O=C(NCCC(O)CN1CCN(c2cccc(Cl)c2Cl)CC1)c1ccc(-c2ccccn2)cc1 (centres unmarked) [Compound 16, N-(4-(4-(2,3-Dichlorophenyl)piperazin-1-yl)-3-hydroxybutyl)-4-pyridin-2-yl-benzamide] | 11 | 4620 | 1540 | 3 | 3 ± 0.2 | 89 | 38 | 267 |  | 14 |  |  |  |  |  | 26 | 15.8 ± 2.7 | 48 | 1 ± 0.1 |
| Cc1cccnc1-c1ccc(C(=O)NC/C=C/CN2CCN(c3cccc(Cl)c3Cl)CC2)cc1 [Compound 11, N-(4-(4-(2,3-Dichlorophenyl)piperazin-1-yl)-trans-but-2-enyl)-4-(3-methyl-pyridin-2-yl)-benzamide] | 58 |  |  | 1.6 | 1.6 ± 0.4 | 58 | 19 | 92 | 25.6 ± 8.5 | 29 | 368 ± 113 |  |  |  |  |  |  |  |  |
